The record followed here is ChEMBL document CHEMBL1614631, “Comparative evaluation of oral systemic exposure of 56 xenobiotics in rat, dog, monkey and human” (Xenobiotica, 2005).

Data set [1] is described as follows: Dose normalised AUC in rat after po administration. To be noted: in vivo.
A short description of data set [2]: Dose normalised AUC in monkey after po administration. To be noted: macaca, in vivo.
The nature of data set [3]: Dose normalised AUC in human after po administration. The settings on record: in vivo.
A short description of data set [4]: Dose normalised AUC in dog after po administration. To be noted: in vivo.

`Cn1cc(/C=C2/C(=O)N3C(C(=O)O)=CS[C@H]23)nn1`: the DNAUC in data set [1] came to 0.29 kg·min/L; in data set [2], 0.45 kg·min/L; in data set [3] it was 5 kg·min/L; in data set [4] it was 3.33 kg·min/L.
Taken in the same sequence, the figures for `CC1=NC(=O)C(CCN(C(C)C)C(C)C)(c2ccccc2)C2CCCCN12` (configuration not stated) [ACTISOMIDE] were 14.49 kg·min/L, 26.46 kg·min/L, 51.51 kg·min/L and 71.7 kg·min/L.
As for `CC[C@H]1OC(=O)[C@H](C)[C@@H](O[C@H]2C[C@@](C)(OC)[C@@H](O)[C@H](C)O2)[C@H](C)[C@@H](O[C@@H]2O[C@H](C)C[C@H](N(C)C)[C@H]2O)[C@](C)(O)C[C@@H](C)CN(C)[C@H](C)[C@@H](O)[C@]1(C)O` [AZITHROMYCIN], the DNAUC is 11.42 kg·min/L in data set [1], 17.52 kg·min/L in data set [2], 33.15 kg·min/L in data set [3] and 140.4 kg·min/L in data set [4].
Take `C1=C(c2ccccc2)CCN(C[C@@H]2CCC=C(c3ccccc3)C2)C1` [CI-1007]: the DNAUC in data set [1] came out at 2.65 kg·min/L; in data set [2] it was 2.34 kg·min/L; in data set [3], 2.63 kg·min/L; in data set [4], 1.46 kg·min/L.
Take `O=C(O)c1cn(C2CC2)c2cc(N3CCNCC3)c(F)cc2c1=O` [CIPROFLOXACIN]: the DNAUC stood at 9.36 kg·min/L in data set [1], 85.2 kg·min/L in data set [2], 77.03 kg·min/L in data set [3] and 32.75 kg·min/L in data set [4].
For the compound `CN(C)CCCC1(c2ccc(F)cc2)OCc2cc(C#N)ccc21` (configuration not stated) [CITALOPRAM], the DNAUC came out at 5.88 kg·min/L in data set [1], 9.85 kg·min/L in data set [2], 200 kg·min/L in data set [3] and 8.75 kg·min/L in data set [4].
Taken in the same sequence, the figures for `O=C1CN=C(c2ccccc2Cl)c2cc([N+](=O)[O-])ccc2N1` [CLONAZEPAM] were 3.47 kg·min/L, 36.8 kg·min/L, 590 kg·min/L and 24 kg·min/L.
As for `O=c1ccc2ccccc2o1` [COUMARIN], the DNAUC in data set [1] was found to be 37.5 kg·min/L; in data set [2], 31.8 kg·min/L; in data set [3], 2.03 kg·min/L; in data set [4], 40.38 kg·min/L.
Taken in the same sequence, the figures for `CCN[C@@H](C)Cc1cccc(C(F)(F)F)c1` [DEXFENFLURAMINE] were 7.2 kg·min/L, 4.38 kg·min/L, 80 kg·min/L and 6.72 kg·min/L.
As to `CC(C)N(CCC(C(N)=O)(c1ccccc1)c1ccccn1)C(C)C` (configuration not stated) [DISOPYRAMIDE], the DNAUC was found to be 6.07 kg·min/L in data set [1], 2.2 kg·min/L in data set [2], 550.48 kg·min/L in data set [3] and 101.6 kg·min/L in data set [4].
Taken in the same sequence, the figures for `CC[C@H]1OC(=O)[C@H](C)[C@@H](O[C@H]2C[C@@](C)(OC)[C@@H](O)[C@H](C)O2)[C@H](C)[C@@H](O[C@@H]2O[C@H](C)C[C@H](N(C)C)[C@H]2O)[C@](C)(O)C[C@@H](C)C(=O)[C@H](C)[C@@H](O)[C@]1(C)O` [ERYTHROMYCIN] were 1.88 kg·min/L, 1.32 kg·min/L, 36.8 kg·min/L and 31.38 kg·min/L.
The corresponding values for `C#C[C@]1(O)CC[C@H]2[C@@H]3CCc4cc(O)ccc4[C@H]3CC[C@@]21C` [ETHINYL ESTRADIOL] are 0.46 kg·min/L, 0.68 kg·min/L, 75.45 kg·min/L and 4.5 kg·min/L.
The corresponding values for `CCC1(C)CC(=O)NC1=O` (configuration not stated) [ETHOSUXIMIDE] are 285.71 kg·min/L, 2792.79 kg·min/L, 6666.67 kg·min/L and 2166.68 kg·min/L.
